Measured values as given in EP3058958B1, “ANIDULAFUNGIN COMPOSITION” (Selectchemie AG, priority 2015, dated 2016).
Numbered stars: 1 amine (or outer) side, 2 acyl side, 3 side chain; on linkers, the order of the positions; unused ones are H or OH. Bridge positions count the residues as written; N and C are the ends. Square brackets hold non-standard residues; d marks the D form. Peptide text beside a SMILES is read from it. * marks the point of attachment. pTerphenylCO(4''-OnC5H11) = CCCCCOc1ccc(-c2ccc(-c3ccc(C(=O)*)cc3)cc2)cc1; Orn(4R-OH,5R-OH) = O=C([C@H](C[C@@H](O)[C@@H](O)N[*:3])N[*:1])[*:2]; hTyr(3S-OH,4S-OH) = N[C@H](C(=O)O)[C@H](O)[C@@H](O)c1ccc(O)cc1; Pro(3S-OH,4S-Me) = C[C@H]1CN[C@H](C(=O)O)[C@H]1O; Hyp = O=C(O)[C@@H]1C[C@@H](O)CN1

Experiment: Dissolution of anidulafungin powder in the polysorbate 80 solution
Assay type: physicochemical
Description: Next the active ingredient is added. […] Even in small scale experiments the dissolution needs more than 4 hours. The dissolution can be accelerated by a pre-treatment of the active ingredient, preferably by dispersing the active ingredient in a pharmaceutically acceptable solvent, preferably in WFI, e.g. in an ultrasonic bath, and using this dispersion in step (b).
Dissolve the pre-weighed amount of polysorbate 80 in about 75% of total amount of WFI, rinse weighing container with 100 ml of WFI into reactor; stir not less than 20 min until excipient completely dissolves with a mechanical stirrer at a speed of 150-190 rpm.
Add about 7% of total amount of WFI to the pre-weighed amount of the active pharmaceutical ingredient (API) anidulafungin in glass bottle, screw the cap, shake bottle well in order to promote wetting of API and transfer it into ultrasonic bath for homogenisation. Take not less than 3 cycles of homogenisation for 10 min. Slightly shake the bottle after each cycle, in order to rinse API particles from the walls of the bottle's upper part into suspension. After white, well-homogenized suspension is obtained, transfer it into intermediate product preparation reactor, stir with a mechanical stirrer at a speed of 150-190 rpm until substance dissolves completely.
100% of the particles were below 750 µm. Particle sizes were analysed by laser diffraction with dry dispersion using a Malvern Mastersizer 3000 instrument. The size distribution was determined from the light scattering data using the theory of light scattering developed by Gustav Mie. […] It remained an undissolved residue of about 5% which corresponds to particles with more than about 400 µm. About 9-10% of the particles were bigger than 350 µm.
In a second experiment an aliquot of the anidulafungin powder was sieved through a 50 mesh sieve, corresponding to a mesh width of 297 µm to remove the bigger particles.

SMILES | dissolution in the polysorbate 80 solution (after treatment of the powder in an ultrasonic bath) | time needed for dissolution (particles with a particle size of more than 400 µm, small scale experiments, solubilizing agent added) | undissolved residue (polysorbate 80 solution, vigorous stirring for 4 h, powder D90 339 µm) | dissolution in the polysorbate 80 solution (vigorous stirring for 4 h, powder D90 339 µm, unsieved) | dissolution in the polysorbate 80 solution (powder sieved through a 50 mesh sieve (297 µm), mechanical stirrer)
CCCCCOc1ccc(-c2ccc(-c3ccc(C(=O)N[C@H]4C[C@@H](O)[C@@H](O)NC(=O)[C@@H]5[C@@H](O)[C@@H](C)CN5C(=O)[C@H]([C@@H](C)O)NC(=O)[C@H]([C@H](O)[C@@H](O)c5ccc(O)cc5)NC(=O)[C@@H]5C[C@@H](O)CN5C(=O)[C@H]([C@@H](C)O)NC4=O)cc3)cc2)cc1 [anidulafungin powder, anidulafungin] ({pTerphenylCO(4''-OnC5H11)}-[Orn(4R-OH,5R-OH)]T[Hyp][hTyr(3S-OH,4S-OH)]T[Pro(3S-OH,4S-Me)]; lactam 1-C) | complete dissolution could be achieved | more than 4 hours | about 5% | could not be dissolved completely | –
CCCCCOc1ccc(-c2ccc(-c3ccc(C(=O)N[C@H]4C[C@@H](O)[C@@H](O)NC(=O)[C@@H]5[C@@H](O)[C@@H](C)CN5C(=O)[C@H]([C@@H](C)O)NC(=O)[C@H]([C@H](O)[C@@H](O)c5ccc(O)cc5)NC(=O)[C@@H]5C[C@@H](O)CN5C(=O)[C@H]([C@@H](C)O)NC4=O)cc3)cc2)cc1 [sieved powder, anidulafungin] ({pTerphenylCO(4''-OnC5H11)}-[Orn(4R-OH,5R-OH)]T[Hyp][hTyr(3S-OH,4S-OH)]T[Pro(3S-OH,4S-Me)]; lactam 1-C) | – | – | – | – | could be dissolved easily
